Assay results: the NIST ThermoML archive (doi:10.1016/j.jct.2015.08.014)

Experiment: xn = mol fraction of the nth substance listed
Details: 298.15 K, 100 kPa, Liquid, Alternating current cell with electrodes

CCCC[N+]1(C)CCCC1.N#CN=C=[N-] [1-butyl-1-methylpyrrolidinium dicyanamide] + O=C1CCCO1
Details | electrical conductivity [S/m]
Frequency=0.005 MHz, x1 = 0.3029 | 2.54
Frequency=0.005 MHz, x1 = 0.3845 | 2.36
Frequency=0.005 MHz, x1 = 0.4985 | 2.08
Frequency=0.005 MHz, x1 = 0.6954 | 1.68
Frequency=0.005 MHz, x1 = 0.9013 | 1.39
Frequency=0.005 MHz, x1 = 1 | 1.317
Frequency=0.005454 MHz, x1 = 0.0463 | 1.47
Frequency=0.005454 MHz, x1 = 0.0987 | 2.21
Frequency=0.005454 MHz, x1 = 0.1449 | 2.51
Frequency=0.005454 MHz, x1 = 0.1859 | 2.67
Frequency=0.005454 MHz, x1 = 0.2493 | 2.613
Frequency=0.005454 MHz, x1 = 0.3029 | 2.54
Frequency=0.005454 MHz, x1 = 0.3845 | 2.36
Frequency=0.005454 MHz, x1 = 0.4985 | 2.08
Frequency=0.005454 MHz, x1 = 0.6954 | 1.68
Frequency=0.005454 MHz, x1 = 0.9013 | 1.39
Frequency=0.005454 MHz, x1 = 1 | 1.317
Frequency=0.006 MHz, x1 = 0.0463 | 1.47
Frequency=0.006 MHz, x1 = 0.0987 | 2.21
Frequency=0.006 MHz, x1 = 0.1449 | 2.51
Frequency=0.006 MHz, x1 = 0.1859 | 2.67
Frequency=0.006 MHz, x1 = 0.2493 | 2.613
Frequency=0.006 MHz, x1 = 0.3029 | 2.54
Frequency=0.006 MHz, x1 = 0.3845 | 2.36
Frequency=0.006 MHz, x1 = 0.4985 | 2.08
Frequency=0.006 MHz, x1 = 0.6954 | 1.68
Frequency=0.006 MHz, x1 = 0.9013 | 1.39
Frequency=0.006 MHz, x1 = 1 | 1.317
Frequency=0.00652174 MHz, x1 = 0.0463 | 1.47
Frequency=0.00652174 MHz, x1 = 0.0987 | 2.22
Frequency=0.00652174 MHz, x1 = 0.1449 | 2.51
Frequency=0.00652174 MHz, x1 = 0.1859 | 2.67
Frequency=0.00652174 MHz, x1 = 0.2493 | 2.613
Frequency=0.00652174 MHz, x1 = 0.3029 | 2.54
Frequency=0.00652174 MHz, x1 = 0.3845 | 2.36
Frequency=0.00652174 MHz, x1 = 0.4985 | 2.08
Frequency=0.00652174 MHz, x1 = 0.6954 | 1.68
Frequency=0.00652174 MHz, x1 = 0.9013 | 1.39
Frequency=0.00652174 MHz, x1 = 1 | 1.317
Frequency=0.00694444 MHz, x1 = 0.0463 | 1.47
Frequency=0.00694444 MHz, x1 = 0.0987 | 2.22
Frequency=0.00694444 MHz, x1 = 0.1449 | 2.51
Frequency=0.00694444 MHz, x1 = 0.1859 | 2.67
Frequency=0.00694444 MHz, x1 = 0.2493 | 2.613
Frequency=0.00694444 MHz, x1 = 0.3029 | 2.54
Frequency=0.00694444 MHz, x1 = 0.3845 | 2.36
Frequency=0.00694444 MHz, x1 = 0.4985 | 2.08
Frequency=0.00694444 MHz, x1 = 0.6954 | 1.68
Frequency=0.00694444 MHz, x1 = 0.9013 | 1.39
Frequency=0.00694444 MHz, x1 = 1 | 1.317
Frequency=0.0075 MHz, x1 = 0.0463 | 1.47
Frequency=0.0075 MHz, x1 = 0.0987 | 2.22
Frequency=0.0075 MHz, x1 = 0.1449 | 2.51
Frequency=0.0075 MHz, x1 = 0.1859 | 2.67
Frequency=0.0075 MHz, x1 = 0.2493 | 2.613
Frequency=0.0075 MHz, x1 = 0.3029 | 2.54
Frequency=0.0075 MHz, x1 = 0.3845 | 2.36
Frequency=0.0075 MHz, x1 = 0.4985 | 2.08
Frequency=0.0075 MHz, x1 = 0.6954 | 1.68
Frequency=0.0075 MHz, x1 = 0.9013 | 1.39
Frequency=0.0075 MHz, x1 = 1 | 1.318
Frequency=0.008 MHz, x1 = 0.0463 | 1.47
Frequency=0.008 MHz, x1 = 0.0987 | 2.22
Frequency=0.008 MHz, x1 = 0.1449 | 2.51
Frequency=0.008 MHz, x1 = 0.1859 | 2.67
Frequency=0.008 MHz, x1 = 0.2493 | 2.613
Frequency=0.008 MHz, x1 = 0.3029 | 2.54
Frequency=0.008 MHz, x1 = 0.3845 | 2.36
Frequency=0.008 MHz, x1 = 0.4985 | 2.08
Frequency=0.008 MHz, x1 = 0.6954 | 1.68
Frequency=0.008 MHz, x1 = 0.9013 | 1.39
Frequency=0.008 MHz, x1 = 1 | 1.318
Frequency=0.00857143 MHz, x1 = 0.0463 | 1.48
Frequency=0.00857143 MHz, x1 = 0.0987 | 2.22
Frequency=0.00857143 MHz, x1 = 0.1449 | 2.51
Frequency=0.00857143 MHz, x1 = 0.1859 | 2.67
Frequency=0.00857143 MHz, x1 = 0.2493 | 2.613
Frequency=0.00857143 MHz, x1 = 0.3029 | 2.54
Frequency=0.00857143 MHz, x1 = 0.3845 | 2.36
Frequency=0.00857143 MHz, x1 = 0.4985 | 2.08
Frequency=0.00857143 MHz, x1 = 0.6954 | 1.68
Frequency=0.00857143 MHz, x1 = 0.9013 | 1.39
Frequency=0.00857143 MHz, x1 = 1 | 1.318
Frequency=0.00892857 MHz, x1 = 0.0463 | 1.48
Frequency=0.00892857 MHz, x1 = 0.0987 | 2.22
Frequency=0.00892857 MHz, x1 = 0.1449 | 2.51
Frequency=0.00892857 MHz, x1 = 0.1859 | 2.67
Frequency=0.00892857 MHz, x1 = 0.2493 | 2.614
Frequency=0.00892857 MHz, x1 = 0.3029 | 2.54
Frequency=0.00892857 MHz, x1 = 0.3845 | 2.36
Frequency=0.00892857 MHz, x1 = 0.4985 | 2.08
Frequency=0.00892857 MHz, x1 = 0.6954 | 1.68
Frequency=0.00892857 MHz, x1 = 0.9013 | 1.39
Frequency=0.00892857 MHz, x1 = 1 | 1.318
Frequency=0.00961538 MHz, x1 = 0.0463 | 1.48
Frequency=0.00961538 MHz, x1 = 0.0987 | 2.22
Frequency=0.00961538 MHz, x1 = 0.1449 | 2.51
Frequency=0.00961538 MHz, x1 = 0.1859 | 2.68
Frequency=0.00961538 MHz, x1 = 0.2493 | 2.614
Frequency=0.00961538 MHz, x1 = 0.3029 | 2.54
Frequency=0.00961538 MHz, x1 = 0.3845 | 2.36
Frequency=0.00961538 MHz, x1 = 0.4985 | 2.08
Frequency=0.00961538 MHz, x1 = 0.6954 | 1.68
Frequency=0.00961538 MHz, x1 = 0.9013 | 1.39
Frequency=0.00961538 MHz, x1 = 1 | 1.318
Frequency=0.01 MHz, x1 = 0.0463 | 1.48
Frequency=0.01 MHz, x1 = 0.0987 | 2.22
